According to PMC5504357, “Antifungal Potential of Copper(II), Manganese(II) and Silver(I) 1,10-Phenanthroline Chelates Against Multidrug-Resistant Fungal Species Forming the Candida haemulonii Complex: Impact on the Planktonic and Biofilm Lifestyles” (Frontiers in Microbiology, 2017):

Experiments:
[1] = tested on: A549 cells; assay: Mammalian cell toxicity (MTT assay) and selectivity index; assay type: cell-based, Human; conditions: MTT, 48 h incubation
Description: (§1) Three clinical isolates of each species that form the C. haemulonii complex were used in this study: C. haemulonii (LIPCh4 from finger nail, LIPCh7 from toe nail, and LIPCh12 from blood), C. duobushaemulonii (LIPCh1 from finger nail, LIPCh6 from toe nail, and LIPCh8 from blood) and C. haemulonii var. vulnera (LIPCh5 from toe nail, LIPCh9 from urine, and LIPCh11 from blood) (Ramos et al., [2015]). The fungal isolates were identified by the automatized system VITEK® 2 and then characterized by ITS1-5.8S-ITS2 gene sequencing (Ramos et al., [2015]). Fungal cells were cultured in Sabouraud-dextrose medium under constant agitation (130 rpm) for 48 h at 37°C. Human lung adenocarcinoma A549 cells were maintained in culture flasks containing DMEM medium supplemented with 10% fetal bovine serum at 37°C in an atmosphere of 5% CO2.
The cytotoxicity was evaluated using the MTT [3-(4,5-dimethylthiazol-2-yl)-2,5-diphenyl tetrazolium bromide] (Sigma-Aldrich) assay (Mosmann, [1983]). A549 cells (10^4) were seeded into tissue culture plates (TPP, Switzerland) and cultured for 24 h at 37°C in a 5% CO2 in order to obtain cellular confluence. The wells were then washed twice with DMEM to remove non-adherent cells and the test compounds were added (in concentrations ranging from 0.0313 to 512 μg/mL) to plates containing DMEM, followed by a 48 h incubation period under the same conditions mentioned above. The cellular viability was evaluated by adding MTT to each well and incubating the plates in the dark for 3 h, allowing the viable cells containing active mitochondrial dehydrogenase enzymes to metabolize MTT-tetrazolium salt into purple formazan. The formazan crystals were then dissolved in DMSO (100 μL) and the absorbance (450 nm) measured using a Thermomax Molecular Device microplate reader. The concentration capable of reducing cellular viability by 50% (CC50) was calculated, and the selectivity index (SI) determined using the following equation: A549 CC50/C. haemulonii complex GM-MIC.

[2] = tested on: Candida haemulonii complex; assay: Biofilm-growing cells, overall across isolates; assay type: cell-based; conditions: for Overall GM-bMIC: geometric mean across strains, values marked * do not include LIP Ch4 (>512)
Protocol: (§2) The effect of the compounds on biofilm-growing cells was determined using the previously described microtiter-based technique (Ramage et al., [2001]). The fungi (10^6 yeast cells) were incubated for 48 h at 37°C in 96-well polystyrene microtiter plates (Corning®, Corning Incorporated, USA) containing Sabouraud-dextrose broth to accommodate biofilm formation. Following biofilm formation, the culture medium was aspirated and non-adherent cells removed by thoroughly washing the wells three times with sterile PBS (0.15 M NaCl, 0.01 M phosphate buffer, pH 7.2). Afterwards, the compounds, at the same concentrations used in the planktonic assays, were added to the wells, and the plates were incubated for further 48 h at 37°C. The metabolic activity was then evaluated using a colorimetric assay that measures the metabolic reduction of 2,3-bis (2-methoxy-4-nitro-5-sulfophenyl)-5-[(phenylamino) carbonyl]-2H-tetrazolium hydroxide (XTT; Sigma-Aldrich) to a water-soluble, brown formazan product (Peeters et al., [2008]). The biofilm MIC (bMIC) for each compound was established as the minimal concentration capable of inhibiting 50% of metabolic activity when compared to compound-free wells (Ziccardi et al., [2015]).

[3] = tested on: C. haemulonii complex; assay: Planktonic growth, overall across all nine isolates; assay type: cell-based, Candida haemulonii complex; conditions: geometric mean across all nine strains; for MIC: in μM, read-out: Overall GM-MIC
Description: as §1
(§3) Susceptibility profile assays were performed in accordance with the broth microdilution protocol described in the document M27-A3 published by the Clinical and Laboratory Standards Institutes (CLSI, [2008]). Samples of the test chelates were dissolved in DMSO (500 μL) and then serially diluted in a 96-well plate containing RPMI 1640 (Sigma-Aldrich, USA) to give the concentration range of 0.0625-32 mg/L. Aqueous solutions of the metal-free phen ligand and the simple metal salts, MnCl2, CuCl2, and AgNO3, were also screened over the same concentration range. Caspofungin (Sigma-Aldrich) was used as a classical antifungal agent able to block the growth of all clinical isolates of C. haemulonii species as previously reported by our research group (Ramos et al., [2015]). Water dilutions containing DMSO concentrations corresponding to those used to prepare the drug solutions were assessed in parallel. Untreated and compound-treated fungal cells were incubated at 37°C for 48 h and the minimal inhibitory concentration (MIC) was established as the lowest compound concentration where no cellular growth could be detected by visual inspection in accordance to the CLSI recommendation. The geometric mean of the MIC values (GM-MIC) of each compound against all the fungal isolates was calculated using the software, Microsoft Office Excel 2013.

[4] = tested on: Candida duobushaemulonii; assay: Planktonic growth, broth microdilution (CLSI M27-A3), MIC; assay type: cell-based; conditions: for GM-MIC: geometric mean of three C. duobushaemulonii isolates; for MIC: planktonic, 48 h, 37°C
Description: as §1, §3

[5] = tested on: Candida haemulonii var. vulnera; assay: as above; assay type: cell-based; conditions: for GM-MIC: geometric mean of three C. haemulonii var. vulnera isolates; for MIC: planktonic, 48 h, 37°C
Description: as §1, §3

[6] = tested on: Candida haemulonii; assay: as above; assay type: cell-based; conditions: for GM-MIC: geometric mean of three C. haemulonii isolates; for MIC: planktonic, 48 h, 37°C
Description: as §1, §3

[7] = tested on: Candida duobushaemulonii; assay: Biofilm-growing cells, XTT assay, bMIC; assay type: cell-based; conditions: for GM-bMIC: geometric mean, C. duobushaemulonii isolates; for bMIC: mature biofilm, 48 h, 50% inhibition of metabolic activity
Protocol: as §2

[8] = tested on: Candida haemulonii var. vulnera; assay: Biofilm-growing cells, XTT assay, bMIC; assay type: cell-based; conditions: for GM-bMIC: geometric mean, C. haemulonii var. vulnera isolates; for bMIC: mature biofilm, 48 h, 50% inhibition of metabolic activity
Protocol: as §2

[9] = tested on: Candida haemulonii; assay: Biofilm-growing cells, XTT assay, bMIC; assay type: cell-based; conditions: for GM-bMIC: geometric mean, C. haemulonii isolates, values marked * do not include LIP Ch4 (>512); for bMIC: mature biofilm, 48 h, 50% inhibition of metabolic activity
Protocol: as §2

| Compound | A549 (CC50) [1] | Overall GM-bMIC [2] | Overall GM-MIC [3] | MIC [3] | GM-MIC [4] | MIC ([4]; isolate LIP Ch1) | MIC ([4]; isolate LIP Ch6) | MIC ([4]; isolate LIP Ch8) | GM-MIC [5] | MIC ([5]; isolate LIP Ch5) | MIC ([5]; isolate LIP Ch9) | MIC ([5]; isolate LIP Ch11) | GM-MIC [6] | MIC ([6]; isolate LIP Ch4) | MIC ([6]; isolate LIP Ch7) | MIC ([6]; isolate LIP Ch12) | GM-bMIC [7] | bMIC ([7]; isolate LIP Ch1) | bMIC ([7]; isolate LIP Ch6) | bMIC ([7]; isolate LIP Ch8) | further results |
| --- | --- | --- | --- | --- | --- | --- | --- | --- | --- | --- | --- | --- | --- | --- | --- | --- | --- | --- | --- | --- | --- |
| CCO.O.O.O.O.O.O.O=C([O-])c1cccc(C(=O)[O-])c1.[Cu+2].c1cnc2c(c1)ccc1cccnc12.c1cnc2c(c1)ccc1cccnc12 [compound 3, [Cu(isoph)(phen)2].6H2O.EtOH] | 0.89 µg/mL | 14.81 mg/L | 6.86 µg/mL | 9.21 µM | 5.04 µg/mL | 4 µg/mL | 8 µg/mL | 4 µg/mL | 6.35 µg/mL | 4 µg/mL | 8 µg/mL | 8 µg/mL | 10.08 µg/mL | 8 µg/mL | 8 µg/mL | 16 µg/mL | 12.70 mg/L | 32 mg/L | 8 mg/L | 8 mg/L | Overall GM-bMIC ([2]; in μM): 19.95 µM; GM-bMIC [8]: 12.70 mg/L; bMIC ([8]; isolate LIP Ch5): 16 mg/L; bMIC ([8]; isolate LIP Ch9): 8 mg/L; bMIC ([8]; isolate LIP Ch13): 16 mg/L; GM-bMIC [9]: 20.16 mg/L; bMIC ([9]; isolate LIP Ch4): 32 mg/L; bMIC ([9]; isolate LIP Ch7): 16 mg/L; bMIC ([9]; isolate LIP Ch14): 16 mg/L |
| {[Mn(3,6,9-tdda)(phen)2].3H2O.EtOH}n [compound 14] | 261.67 µg/mL | 11.76 mg/L | 2.33 µg/mL | 3.15 µM | 3.17 µg/mL | 4 µg/mL | 4 µg/mL | 2 µg/mL | 2 µg/mL | 2 µg/mL | 2 µg/mL | 2 µg/mL | 2 µg/mL | 2 µg/mL | 2 µg/mL | 2 µg/mL | 10.08 mg/L | 16 mg/L | 4 mg/L | 16 mg/L | GM-bMIC [8]: 8 mg/L; bMIC ([8]; isolate LIP Ch5): 16 mg/L; bMIC ([8]; isolate LIP Ch9): 4 mg/L; bMIC ([8]; isolate LIP Ch13): 8 mg/L; GM-bMIC [9]: 20.16 mg/L; bMIC ([9]; isolate LIP Ch4): 512 mg/L; bMIC ([9]; isolate LIP Ch7): 4 mg/L; bMIC ([9]; isolate LIP Ch14): 4 mg/L |
| O.O.O.O.O=C([O-])c1cccc(C(=O)[O-])c1.O=C([O-])c1cccc(C(=O)[O-])c1.[Mn+2].[Mn+2].c1cnc2c(c1)ccc1cccnc12.c1cnc2c(c1)ccc1cccnc12.c1cnc2c(c1)ccc1cccnc12 [compound 10, [Mn2(isoph)2(phen)3].4H2O] | 255.87 µg/mL | 14.67 mg/L | 5.44 µg/mL | 5.15 µM | 6.35 µg/mL | 8 µg/mL | 8 µg/mL | 4 µg/mL | 4 µg/mL | 4 µg/mL | 4 µg/mL | 4 µg/mL | 6.35 µg/mL | 8 µg/mL | 8 µg/mL | 4 µg/mL | 16 mg/L | 16 mg/L | 16 mg/L | 16 mg/L | Overall GM-bMIC ([2]; in μM): 13.96 µM; GM-bMIC [8]: 12.70 mg/L; bMIC ([8]; isolate LIP Ch5): 32 mg/L; bMIC ([8]; isolate LIP Ch9): 8 mg/L; bMIC ([8]; isolate LIP Ch13): 8 mg/L; GM-bMIC [9]: 16^* mg/L; bMIC ([9]; isolate LIP Ch4): >512 mg/L; bMIC ([9]; isolate LIP Ch7): 8 mg/L; bMIC ([9]; isolate LIP Ch14): 32 mg/L |
| O=C1C(=O)c2cccnc2-c2ncccc21.O=C1C(=O)c2cccnc2-c2ncccc21.[Ag+].[O-][Cl+3]([O-])([O-])[O-] [compound 15, [Ag(phendione)2]ClO4] | 3.76 µg/mL | 16 mg/L | 1.36 µg/mL | 2.16 µM | 2 µg/mL | 2 µg/mL | 2 µg/mL | 2 µg/mL | 1.26 µg/mL | 2 µg/mL | 1 µg/mL | 1 µg/mL | 1 µg/mL | 1 µg/mL | 1 µg/mL | 1 µg/mL | 10.08 mg/L | 8 mg/L | 32 mg/L | 4 mg/L | decrease in activity on going from planktonic to biofilm cells ([2]; biofilm MIC versus planktonic MIC): 11.8 fold; Overall GM-bMIC ([2]; in μM): 25.48 µM; GM-bMIC [8]: 32 mg/L; bMIC ([8]; isolate LIP Ch5): 32 mg/L; bMIC ([8]; isolate LIP Ch9): 32 mg/L; bMIC ([8]; isolate LIP Ch13): 32 mg/L; GM-bMIC [9]: 11.31^* mg/L; bMIC ([9]; isolate LIP Ch4): >512 mg/L; bMIC ([9]; isolate LIP Ch7): 8 mg/L; bMIC ([9]; isolate LIP Ch14): 16 mg/L |
